Measured values as given in BigSolDB 2.1.

| solubility (mole fraction) (in THF, 296 K) | solubility (mole fraction) (in THF, 310 K) | solubility (mole fraction) (in acetonitrile, 296 K) | solubility (mole fraction) (in acetonitrile, 310 K) | solubility (mole fraction) (in ethanol, 296 K) | solubility (mole fraction) (in ethanol, 310 K) | solubility (mole fraction) (in isopropanol, 296 K) | solubility (mole fraction) (in isopropanol, 310 K) | solubility (mole fraction) (in methanol, 296 K) | solubility (mole fraction) (in methanol, 310 K) | solubility (mole fraction) (in n-propanol, 296 K) | solubility (mole fraction) (in n-propanol, 310 K) | solubility (mole fraction) (in acetone, 296 K) | solubility (mole fraction) (in acetone, 310 K) | SMILES |
| --- | --- | --- | --- | --- | --- | --- | --- | --- | --- | --- | --- | --- | --- | --- |
| 0.00249 | 0.00393 | 4.44e-05 | 6.46e-05 | 0.00102 | 0.00126 | 0.00168 | 0.0015 | 0.000523 | 0.000656 | 0.00178 | 0.00256 | – | – | C[C@]12CC[C@H](O)CC1=CC[C@@H]1[C@@H]2CC[C@]2(C)C(c3cccnc3)=CC[C@@H]12 |
| – | – | 0.0021 | 0.0027 | 0.0111 | 0.0127 | 0.0133 | 0.0145 | 0.00544 | 0.00648 | 0.0242 | 0.0279 | 0.0128 | 0.0181 | CC(=O)O[C@H]1CC[C@@]2(C)C(=CC[C@@H]3[C@@H]2CC[C@]2(C)C(c4cccnc4)=CC[C@@H]32)C1 |
